One assay addresses T1, ZIP3 (Arabidopsis thaliana, UniProt Q9SLG3).
T1 construct: expressed in transfected cells; host or cells: S. cerevisiae ZHY3 (zrt1::LEU2 zrt2::HIS3) with an Arabidopsis cDNA clone in pFL61
T1 sequence (Q9SLG3 26-339): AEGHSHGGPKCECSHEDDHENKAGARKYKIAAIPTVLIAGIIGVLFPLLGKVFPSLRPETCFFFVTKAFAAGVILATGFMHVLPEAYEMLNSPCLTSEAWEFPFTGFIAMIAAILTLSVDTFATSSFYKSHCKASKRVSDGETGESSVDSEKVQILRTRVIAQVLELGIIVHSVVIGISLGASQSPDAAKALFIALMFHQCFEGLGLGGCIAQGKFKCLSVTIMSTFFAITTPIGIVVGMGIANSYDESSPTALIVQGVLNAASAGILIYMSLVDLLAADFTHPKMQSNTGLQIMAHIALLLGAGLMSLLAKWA
As to the kind of experiment: Zn uptake by ZHY3 containing ZIP3. Type of assay: cell-based. The settings on record: ZIP3 containing ZHY3 cells, 5 minute time course using 10 mM Zn. How it is done: Zinc uptake assays were performed as described previously for iron uptake (Eide et al. (1992) J. Biol. Chem. 267:20774-20781) except that ^65ZnCl2 (Amersham) and LZM-EDTA were substituted for ^59FeCI3 and LIM-EDTA, respectively. Cells were incubated for 5 minutes in LZM-EDTA plus the indicated concentration of ^65Zn, collected on glass fiber filters (Schleicher and Schuell), washed with 10 ml ice-cold SSW (1 mM EDTA, 20 mM trisodium citrate, 1 mM KH2PO4, 1 mM CaCl2, 5 mM MgSO4, 1 mM NaCl pH 4.2), and cell-associated radioactivity was measured by liquid scintillation counting. […] Michaelis-Menten kinetic values were determined using […] software (Intellikinetics, Princeton, N.J.). […] The statistical significance of the differences of values relative to controls was determined with one-way analysis of variance (ANOVA) followed by a Dunnett multiple comparison test. β-galactosidase activity was assayed in cells harvested at an OD600 of 0.5-2.0 as described by Guarente (Guarente, L. (1983) Methods Enzymol. 101:181-191) and activity is expressed as the change in absorbance at 420 nm×1000 divided by (min×ml of culture used×OD600 of the culture). Cell-associated zinc was measured in parallel cultures supplemented with tracer amounts of ^65Zn (10 μM) and nonradioactive zinc to the indicated final concentration. […]

The test system of another assay is zrt1zrt2 (ZHY3) cells. Nature of the assay: Zinc-limited growth, zrt1zrt2 mutant yeast. Type of assay: cell-based, Saccharomyces cerevisiae. On the procedure:
Strains used were DY1457 (MATα ade6 can1 his3 leu2 trp1 ura3), ZHY1 (AMTα ade6 can1 his3 leu2 trp1 ura3 zrt1::LEU2), ZHY2 (MATα ade6 can1 his3 leu2 trp1 ura3 zrt2::HIS3), and ZHY3 (MATα ade6 can1 his3 leu2 trp1 ura3 zrt1::LEU2 zrt2::HIS3). Yeast were grown in YP or SD media (Sherman et al. (1986) Methods in Yeast Genetics, Cold Spring Harbor Laboratory, Cold Spring Harbor, N.Y.) supplemented with necessary auxotrophic requirements and either 2% glucose or 2% galactose. Zinc-limiting YP and SD agar plates contained either bathophenanthroline disulfonate (BPS, 200 μM) or EDTA (1 mM), respectively. A liquid zinc-limiting medium (low zinc medium, LZM) was prepared in the same manner as low iron medium (LIM) (Eide and Guarente (1992) J. Gen. Microbiol. 138:347-354) except that the […]. LZM is similar in composition to SD medium with two modifications essential to controlling zinc availability. First, 1 mM EDTA is added to provide buffering for the concentration of free metal ions. Second, the medium is pH-buffered at 4.2 with 20 mM citrate to prevent pH changes that could alter the metal binding ability of EDTA. LZM was also prepared without EDTA ([…]) which is less zinc-limiting because the predominant chelator in this medium, citrate, binds zinc with less affinity than does EDTA. The concentrations of free (i.e. unchelated) zinc were calculated using MAXCHELATOR software (Chris Patton, Stanford University). Cell number in liquid cultures was determined by measuring the absorbance of cell suspensions at 600 nm (OD600) and converting to cell number with a standard curve.
To further assess the role of the low affinity system as a source of zinc, growth of wild type and zrt2 cells in a zinc-limiting medium, LZM, supplemented with increasing amounts of zinc was examined. The same strains as in FIG. 15 were grown for six hours in SD glucose medium, harvested, washed in LZM, and reinoculated into either LZM (FIG. 15A) or LZM-EDTA (FIG. 15B) supplemented with the indicated concentrations of ZnCl2 ([Zn]T). These cultures were then grown for 16 hours at 30° C. prior to cell number determination. Number of cell divisions are plotted against [Zn]T and the calculated free zinc concentration ([Zn]F). The metal ion buffering capacity of EDTA in LZM is exceeded at concentrations above 100 μM total zinc whereas the metal buffering capacity of citrate in LZM-EDTA maintains a linear relationship between [Zn]T and [Zn]F to concentrations greater than 1 mM. It has been shown previously that the zrt1 mutant requires greater than 500 μM total zinc ([Zn]T) in LZM to undergo its maximum number of cell divisions and this value corresponds to a calculated free (i.e. unchelated) zinc concentration ([Zn]F) of approximately 500 μM. […]

Regarding `[Zn+2]` [zinc], the Zn uptake rate on ZIP3 was found to be 134 fmol/min/10^6 cells. For the same compound, in the assay with zrt1zrt2 (ZHY3) cells (zrt1zrt2, LZM-EDTA, 16 hours), the “calculated free zinc [Zn]F for maximum number of divisions” value is about 6 µM and the “total zinc for maximum number of divisions” value amounted to 500 µM. For the same compound, in the assay on zrt1zrt2 (ZHY3) cells (zrt1zrt2 vs wild type), the “zinc required in the medium relative to the wild type strain” value is “greater than 10^5 fold”. Also, in the assay with zrt1zrt2 (ZHY3) cells (zrt1zrt2 vs zrt1), the “zinc required for growth relative to the zrt1 strain” value was “at least 1000 fold”.

These data come from US6590140B1, “Metal-regulated transporters and uses therefor” (Trustees of Dartmouth College, priority 1996, dated 2003).
